Test results: ChEMBL document CHEMBL3102853, “Carbonic anhydrase inhibitors. Synthesis, and molecular structure of novel series N-substituted N'-(2-arylmethylthio-4-chloro-5-methylbenzenesulfonyl)guanidines and their inhibition of human cytosolic isozymes I and II and the transmembrane tumor-associated isozymes IX and XII” (Eur J Med Chem, 2014)
Calls of active or inactive are those of the source. The calls are words filed in the database; no cut-off is given here.

What was measured:
Type in all cases: functional
[1] = Cytotoxicity against human Hs 578T cells at 10 uM; details: read-out: GI
[2] = tested on: MDA-MB-468; experiment: Cytotoxicity against human MDA-MB-468 cells at 10 uM; details: read-out: GI
[3] = tested on: MCF7; experiment: Cytotoxicity against human MCF7 cells at 10 uM; details: read-out: GI
[4] = tested on: T47D; experiment: Cytotoxicity against human T47D cells at 10 uM; details: read-out: GI
[5] = tested on: DU-145; experiment: Cytotoxicity against human DU145 cells at 10 uM
[6] = tested on: PC-3; experiment: Cytotoxicity against human PC3 cells at 10 uM; details: read-out: GI
[7] = tested on: A498; experiment: Cytotoxicity against human A498 cells at 10 uM; details: read-out: GI
[8] = tested on: NCI/ADR-RES; experiment: Cytotoxicity against human NCI-ADR-RES cells at 10 uM
[9] = tested on: LOX IMVI; experiment: Cytotoxicity against human LOXIMVI cells at 10 uM; details: read-out: GI
[10] = tested on: OVCAR-3; experiment: Cytotoxicity against human OVCAR3 cells at 10 uM; details: read-out: GI
[11] = tested on: UACC-62; experiment: Cytotoxicity against human UACC62 cells at 10 uM; details: read-out: GI
[12] = tested on: SK-MEL-2; experiment: Cytotoxicity against human SK-MEL-2 cells at 10 uM; details: read-out: GI
[13] = tested on: SF-268; experiment: Cytotoxicity against human SF268 cells at 10 uM; details: read-out: GI
[14] = tested on: SW-620; experiment: Cytotoxicity against human SW620 cells at 10 uM; details: read-out: GI
[15] = tested on: SNB-75; experiment: Cytotoxicity against human SNB75 cells at 10 uM; details: read-out: GI
[16] = tested on: KM12; experiment: Cytotoxicity against human KM12 cells at 10 uM; details: read-out: GI
[17] = tested on: HT-29; experiment: Cytotoxicity against human HT-29 cells at 10 uM
[18] = tested on: HOP-92; experiment: Cytotoxicity against human HOP92 cells at 10 uM; details: read-out: GI
[19] = tested on: NCI-H460; experiment: Cytotoxicity against human NCI-H460 cells at 10 uM; details: read-out: GI
[20] = tested on: A549; experiment: Cytotoxicity against human A549 cells at 10 uM; details: read-out: GI
[21] = tested on: SR; experiment: Cytotoxicity against human SR cells at 10 uM; details: read-out: GI
[22] = tested on: MOLT-4; experiment: Cytotoxicity against human MOLT4 cells at 10 uM; details: read-out: GI
[23] = tested on: RPMI-8226; experiment: Cytotoxicity against human RPMI8226 cells at 10 uM; details: read-out: GI
[24] = tested on: K562; experiment: Cytotoxicity against human K562 cells at 10 uM; details: read-out: GI
[25] = tested on: HL-60(TB); experiment: Cytotoxicity against human HL-60(TB) cells at 10 uM; details: read-out: GI

Cc1cc(S(=O)(=O)NC(=N)NCc2ccc(S(N)(=O)=O)cc2)c(SCc2ccccc2)cc1Cl
inhibition of growth at 10 µM [1]: 44% | inhibition of growth at 10 µM [2]: 45% | inhibition of growth at 10 µM [3]: 37% | inhibition of growth at 10 µM [4]: 35% | growth inhibition (GI) [5]: inactive | inhibition of growth at 10 µM [6]: 36% | inhibition of growth at 10 µM [7]: 25% | growth inhibition (GI) [8]: inactive | inhibition of growth at 10 µM [9]: 12% | inhibition of growth at 10 µM [10]: 24% | inhibition of growth at 10 µM [11]: 49% | inhibition of growth at 10 µM [12]: 32% | inhibition of growth at 10 µM [13]: 16% | inhibition of growth at 10 µM [14]: 4% | inhibition of growth at 10 µM [15]: 43% | inhibition of growth at 10 µM [16]: 16% | growth inhibition (GI) [17]: inactive | inhibition of growth at 10 µM [18]: 63% | inhibition of growth at 10 µM [19]: 10% | inhibition of growth at 10 µM [20]: 21% | inhibition of growth at 10 µM [21]: 29% | inhibition of growth at 10 µM [22]: 31% | inhibition of growth at 10 µM [23]: 41% | inhibition of growth at 10 µM [24]: 34% | inhibition of growth at 10 µM [25]: 28%
